The results in this text go back to patent US20240189319A1, “RIFAMYCIN ANALOGS IN COMBINATION WITH VANCOMYCIN AND USES THEREOF” (Regeneron Pharmaceuticals, Inc, priority 2021, published 2024).

In test [1] the test system is S. aureus MRSA strain NRS384. Description: S. aureus IV advanced disseminated infection mouse model, strain NRS384 (kidney burden). Format: in vivo, Staphylococcus aureus. The note with it: for kidney burden reduction in combination with vancomycin, compared with rifampicin plus vancomycin (in words): Example 3B versus Example 3A; for kidney burden, combination with vancomycin versus vancomycin alone (in words): 0.01-0.25 mg/kg + vancomycin. The protocol:
(§1) To test the efficacy of rifamycin analogs (I) and (II) according to the disclosure in combination therapy with vancomycin in vivo, a 4-day intravenous disseminated infection model was utilized. S. aureus MSRA strain NRS384 or N315, where indicated, was grown overnight in tryptic soy broth (TSB) and sub-cultured to mid-logarithmic phase. Bacteria were then washed twice with PBS and resuspended in PBS at a concentration of 1.5×10^8 cfu/mL NRS384 or 6.0×10^8 N315. Six-week-old Balb/c mice were then infected intravenously through the tail vein with 100 uL of the bacterial suspension, for a final infectious dose of 1.5×10^7 cfu/mouse NRS384 or 6.0×10^7 N315. From one to three days post infection, indicated mice were treated with 110 mg/kg vancomycin subcutaneously twice daily where indicated. Rifamycin analogs (I) or (II) were administered subcutaneously at the indicated dose two days after infection. Mice were monitored for weight loss and body conditioning score throughout the infection. At four days post infection, mice were euthanized, and the S. aureus kidney burden was quantified by tissue homogenization followed by enumeration of colony forming units through serial dilution in PBS and plating onto trypticase soy agar plates. Data points represent the kidney burden from individual mice tested.
In this experiment, mice infected with S. aureus MSRA strain NRS384 were treated with vancomycin alone (control) or vancomycin in combination with 0.002 mg/kg to 25 mg/kg rifampicin, a commercially-available rifamycin analog control.
In this experiment, mice infected with S. aureus MSRA strain NRS384 were treated with vancomycin alone (control) or vancomycin in combination with 0.01-0.25 mg/kg rifamycin analog (I) or 0.01-0.25 mg/kg rifamycin analog (II).
In this experiment, mice infected with S. aureus MSRA strain NRS384 were treated with 25 mg/kg rifampicin (control) or 0.002-0.25 mg/kg rifamycin analog (II) alone or in combination with vancomycin, with vancomycin alone as a control.

In test [2] the test system is S. aureus MRSA strain N315. Description: S. aureus IV advanced disseminated infection mouse model, strain N315 (kidney burden). Format: in vivo, Staphylococcus aureus. The conditions noted are these: for kidney burden relative to limit of detection (in words) / Median cfu/kidney pair / bacterial load relative to limit of detection (in words): Example 3D; for Median cfu/kidney pair: day 4, LOD 250. The protocol: as §1
In this experiment, mice infected with S. aureus MSRA strain N315 were treated with 25 mg/kg rifampicin (control), or 0.01-0.75 mg/kg rifamycin analog (I), or 0.002-0.25 mg/kg rifamycin analog (II) in combination with vancomycin, with vancomycin alone as a control.

Where [3] appears, read: Example 3B, dose 0.01 mg/kg sc day 2 + vancomycin 110 mg/kg twice daily, day 4, LOD 250.
Where [4] appears, read: Example 3B, dose 0.05 mg/kg sc day 2 + vancomycin 110 mg/kg twice daily, day 4, LOD 250.
[5] abbreviates: Example 3B, dose 0.25 mg/kg sc day 2 + vancomycin 110 mg/kg twice daily, day 4, LOD 250.
The mark [6] stands for this setting: dose 0.01 mg/kg + vancomycin 110 mg/kg twice daily.
Setting [7] is: dose 0.05 mg/kg + vancomycin 110 mg/kg twice daily.
The mark [8] stands for this setting: dose 0.25 mg/kg + vancomycin 110 mg/kg twice daily.

Consider `CO[C@H]1/C=C/O[C@@]2(C)Oc3c(C)c(O)c4c(=O)c(c5oc6cc(OCCN(C)C)cc(O)c6nc-5c4c3C2=O)NC(=O)/C(C)=C\C=C\[C@H](C)[C@H](O)[C@@H](C)[C@@H](O)[C@@H](C)[C@H](OC(C)=O)[C@@H]1C` [Rifamycin analog (I)], for which the “kidney burden reduction in combination with vancomycin, compared with rifampicin plus vancomycin (in words)” value in test [1] is “effective at reducing S. aureus kidney burden at lower doses than rifampicin”. In test [1] (Example 3B), the “kidney burden, combination with vancomycin versus vancomycin alone (in words)” value is on record as “further reduced kidney burden”. Besides, the Median cfu/kidney pair was determined as 5.88E+04 cfu/kidney pair in test [1] (setting [3]); 5.75E+03 cfu/kidney pair in test [1] (setting [4]); 2.50E+02 cfu/kidney pair in test [1] (setting [5]); 2.50E+02 cfu/kidney pair in test [2] (setting [6]); 2.50E+02 cfu/kidney pair in test [2] (setting [7]); 2.50E+02 cfu/kidney pair in test [2] (setting [8]). Also, the Median cfu/kidney pair in test [2] (dose 0.75 mg/kg + vancomycin 110 mg/kg twice daily) is on record as 2.50E+02 cfu/kidney pair. For the same compound, the “kidney burden relative to limit of detection (in words)” value in test [2] (0.01-0.75 mg/kg + vancomycin) is “at or near the limit of detection”. Also, the “bacterial load relative to limit of detection (in words)” value in test [2] (dose of 0.01 mg/kg in combination with vancomycin) is given as “below the limit of detection”.
Regarding `CO[C@H]1/C=C/O[C@@]2(C)Oc3c(C)c(O)c4c(=O)c(c5oc6cc(OCCN(C)C)ccc6nc-5c4c3C2=O)NC(=O)/C(C)=C\C=C\[C@H](C)[C@H](O)[C@@H](C)[C@@H](O)[C@@H](C)[C@H](OC(C)=O)[C@@H]1C` [Rifamycin analog (II)], the “reduction in S. aureus kidney burden” value in test [1] (0.25 mg/kg as a monotherapy (Example 3C)) is on record as about 3 logs. The “kidney burden reduction in combination with vancomycin, compared with rifampicin plus vancomycin (in words)” value in test [1] is given as “effective at reducing S. aureus kidney burden at lower doses than rifampicin”. The “kidney burden, combination with vancomycin versus vancomycin alone (in words)” value in test [1] (Example 3B) is recorded as “further reduced kidney burden”. Moreover, the Median cfu/kidney pair in test [1] (setting [3]) stood at 2.50E+02 cfu/kidney pair; in test [1] (setting [4]), 2.50E+02 cfu/kidney pair; in test [1] (setting [5]) it was 3.38E+05 cfu/kidney pair; in test [1] (Example 3C, dose 0.002 mg/kg + vancomycin 110 mg/kg twice daily, day 4, LOD 250) it was 2.50E+02 cfu/kidney pair; in test [1] (Example 3C, dose 0.002 mg/kg, without vancomycin, day 4, LOD 250), 2.75E+07 cfu/kidney pair; in test [1] (Example 3C, dose 0.01 mg/kg + vancomycin 110 mg/kg twice daily, day 4, LOD 250), 2.50E+02 cfu/kidney pair. Further, the Median cfu/kidney pair in test [1] (Example 3C, dose 0.01 mg/kg, without vancomycin, day 4, LOD 250) is recorded as 5.13E+06 cfu/kidney pair; in test [1] (Example 3C, dose 0.05 mg/kg + vancomycin 110 mg/kg twice daily, day 4, LOD 250), 2.50E+02 cfu/kidney pair; in test [1] (Example 3C, dose 0.05 mg/kg, without vancomycin, day 4, LOD 250), 1.52E+08 cfu/kidney pair; in test [1] (Example 3C, dose 0.25 mg/kg + vancomycin 110 mg/kg twice daily, day 4, LOD 250), 3.75E+02 cfu/kidney pair; in test [1] (Example 3C, dose 0.25 mg/kg, without vancomycin (monotherapy), day 4, LOD 250) it was 2.13E+04 cfu/kidney pair; in test [2] (dose 0.002 mg/kg + vancomycin 110 mg/kg twice daily), 2.50E+02 cfu/kidney pair. In addition, the Median cfu/kidney pair in test [2] (setting [6]) is recorded as 2.50E+02 cfu/kidney pair; in test [2] (setting [7]), 6.25E+02 cfu/kidney pair; in test [2] (setting [8]) it was 2.50E+02 cfu/kidney pair. In test [1] (Example 3B, lowest tested dose 0.01 mg/kg + vancomycin), the “S. aureus kidney burden relative to limit of detection (in words)” value is given as “below the limit of detection”. For the same compound, the “combination with vancomycin versus monotherapies in reducing bacterial burden (in words)” value in test [1] (Example 3C) was “more effective than either monotherapy”. In addition, in test [1] (Example 3C), the “efficacy when rifamycin analog (II) and vancomycin are used in combination (in words)” value was “enhanced”. For the same compound, the “bacterial load relative to limit of detection (in words)” value in test [1] (Example 3C, low doses including 0.05 and 0.002 mg/kg, in combination with vancomycin) is reported as “below the limit of detection”; in test [2] (dose of 0.002 mg/kg in combination with vancomycin), “below the limit of detection”. The “kidney burden relative to limit of detection (in words)” value in test [2] (0.002-0.25 mg/kg + vancomycin) is “at or near the limit of detection”.
For the compound `CO[C@H]1/C=C/O[C@@]2(C)Oc3c(C)c(O)c4c(O)c(c(/C=N/N5CCN(C)CC5)c(O)c4c3C2=O)NC(=O)/C(C)=C\C=C\[C@H](C)[C@H](O)[C@@H](C)[C@@H](O)[C@@H](C)[C@H](OC(C)=O)[C@@H]1C` [Rifampicin, reference compound], the Median cfu/kidney pair in test [1] (Example 3A, dose 0.002 mg/kg + vancomycin 110 mg/kg twice daily, day 4, LOD 250) was determined as 3.38E+06 cfu/kidney pair; in test [1] (Example 3A, dose 0.01 mg/kg + vancomycin 110 mg/kg twice daily, day 4, LOD 250), 3.00E+06 cfu/kidney pair; in test [1] (Example 3A, dose 0.05 mg/kg + vancomycin 110 mg/kg twice daily, day 4, LOD 250), 2.75E+06 cfu/kidney pair; in test [1] (Example 3A, dose 0.25 mg/kg + vancomycin 110 mg/kg twice daily, day 4, LOD 250), 2.50E+02 cfu/kidney pair; in test [1] (Example 3A, dose 25 mg/kg + vancomycin 110 mg/kg twice daily, day 4, LOD 250), 2.50E+02 cfu/kidney pair; in test [1] (Example 3C, dose 25 mg/kg + vancomycin 110 mg/kg twice daily, day 4, LOD 250), 2.50E+02 cfu/kidney pair. For the same compound, the Median cfu/kidney pair in test [1] (Example 3C, dose 25 mg/kg, without vancomycin, day 4, LOD 250) stood at 7.07E+08 cfu/kidney pair; in test [2] (dose 25 mg/kg + vancomycin 110 mg/kg twice daily), 2.50E+02 cfu/kidney pair.
Vancomycin [reference compound]: the Median cfu/kidney pair in test [1] (Example 3A, Balb/c mice, vancomycin alone 110 mg/kg sc twice daily days 1-3, day 4 post infection, limit of detection 250) was 1.30E+06 cfu/kidney pair; in test [1] (Example 3B, vancomycin alone 110 mg/kg sc twice daily, day 4, LOD 250), 3.50E+06 cfu/kidney pair; in test [1] (Example 3C, vancomycin alone 110 mg/kg sc twice daily, day 4, LOD 250), 1.13E+06 cfu/kidney pair; in test [2] (vancomycin alone 110 mg/kg sc twice daily), 3.88E+04 cfu/kidney pair. Moreover, the “efficacy when rifamycin analog (II) and vancomycin are used in combination (in words)” value in test [1] (Example 3C) is recorded as “enhanced”. Moreover, the “reduction in S. aureus kidney burden” value in test [1] (vancomycin treatment alone (Examples 3A, 3B, 3C)) is given as 2-3 log; in test [2] (vancomycin treatment alone (Example 3D)), about 4 log.
